# Measured values as given in patent US12376590B2, “Compositions comprising pyridine carboxylate herbicides and azole carboxylate safeners” (Corteva Agriscience LLC, priority 2018, dated 2025).
# Where “and” joins values, the source holds several entries; their conditions need not be identical. Equal entries are not always repeated.
# What was measured:
# Assay in all cases: Greenhouse postemergence herbicidal safening trial, visual injury after 20-22 d
# pigweed (AMARE) = format: in vivo, Amaranthus retroflexus
# Excerpt: (§1) Greenhouse Trial Methodology—Evaluation of Postemergence Herbicidal Safening in Crops
# (§2) Seeds of the desired test plant species were planted in a 90:10% v/v (volume/volume) mixture of PRO-MIX® BX (Premier Tech Horticulture, Quakertown, PA, USA) and PROFILE® GREENS GRADE™ (Profile Products LLC, Buffalo Grove, IL, USA) planting mixture, which typically has a pH of 5.2 to 6.2 and an organic matter content of at least 50 percent, in plastic pots with a surface area of 103.2 square centimeters (cm^2). When required to ensure good germination and healthy plants, a fungicide treatment and/or other chemical or physical treatment was applied. The plants were grown for 7-36 days (d) in a greenhouse with an approximate 14-hour (h) photo-period which was maintained at about 23° C. during the day and 22° C. during the night. Nutrients and water were added on a regular basis and supplemental lighting was provided with overhead metal halide 1000-Watt lamps as necessary. The plants were employed for testing when they reached the second or third true leaf stage.
# (§3) Emulsifiable concentrates of each of each pyridine carboxylate herbicide (Compound A or Compound B) were prepared at 100 grams acid equivalent per liter (g ae/L). An aliquot of each emulsifiable concentrate was placed in a 25 mL glass vial and diluted with an aqueous mixture of 1.25% (v/v) ACTIROB® B esterified rapeseed oil (Bayer Crop Science, Research Triangle Park, NC, USA) or MSO® Concentrate with LECI-TECH® methylated soybean oil (Loveland Products, Loveland, CO, USA) to obtain concentrated stock solutions at the highest application rate for each herbicide, based upon a 12 milliliter (mL) application volume at a rate of 187 liters per hectare (L/ha). The concentrated stock solutions were further diluted with an aqueous mixture of 1.25% v/v ACTIROB® B or MSO® Concentrate with LECI-TECH® to obtain stock solutions at reduced application rates for each herbicide. Spray solutions of the herbicide combinations (Compound A or Compound B plus safener) were prepared by adding weighed amounts or aliquots of the azole carboxylate safener to the stock solutions of Compound A or Compound B to form 12-mL spray solutions in two-way combinations.
# (§4) The spray solutions were applied to the plant material with an overhead Mandel track sprayer equipped with 8002E nozzles calibrated to deliver 187 L/ha over an application area of 0.503 square meters (m^2) at a spray height of 18 inches (43 centimeters (cm)) above the average plant canopy. Control plants were sprayed in the same manner with the solvent blank. All herbicide (component a) application rates are given as “g ae/ha” and all safener (component b) application rates are given as “g ai/ha.”
# (§5) The treated plants and control plants were placed in a greenhouse as described above and watered by sub-irrigation to prevent wash-off of the test compounds. After 20-22 d, the condition of the test plants as compared with that of the control plants was determined visually and scored on a scale of 0 to 100 percent where 0 corresponds to no injury and 100 corresponds to complete kill.
# [1] = system: ivyleaf morningglory (IPOHE); format: in vivo, Ipomoea hederacea
# Excerpt: as §1, §2, §3, §4, §5
# Johnson grass (SORHA) = format: in vivo, Sorghum halepense
# Excerpt: as §1, §2, §3, §4, §5
# Canada horseweed (ERICA) = format: in vivo, Erigeron canadensis
# Excerpt: as §1, §2, §3, §4, §5
# [2] = system: Chinese sprangletop (LEFCH); format: in vivo, Leptochloa chinensis
# Excerpt: as §1, §2, §3, §4, §5
# wild buckwheat (POLCO) = format: in vivo, Polygonum convolvulus
# Excerpt: as §1, §2, §3, §4, §5
# common rice (ORYSA) = format: in vivo, Oryza sativa
# Excerpt: as §1, §2, §3, §4, §5
# Russian thistle (SASKR) = format: in vivo, Salsola kali; conditions: applied alone, 20 g/ha
# Excerpt: as §1, §2, §3, §4, §5
# maize (ZEAMX) = format: in vivo, Zea mays
# Excerpt: as §1, §2, §3, §4, §5
# soybean (GLXMA) = format: in vivo, Glycine max
# Excerpt: as §1, §2, §3, §4, §5
# nutsedge (CYPES) = format: in vivo, Cyperus esculentus
# Excerpt: as §1, §2, §3, §4, §5
# barnyardgrass (ECHCG) = format: in vivo, Echinochloa crus-galli
# Excerpt: as §1, §2, §3, §4, §5
# common sunflower (HELAN) = format: in vivo, Helianthus annuus
# Excerpt: as §1, §2, §3, §4, §5
# kochia (KCHSC) = format: in vivo, Kochia scoparia
# Excerpt: as §1, §2, §3, §4, §5
# [3] = system: herbicide-resistant kochia (KCHSC-R); format: in vivo, Kochia scoparia
# Excerpt: as §1, §2, §3, §4, §5
# large crabgrass (DIGSA) = format: in vivo, Digitaria sanguinalis
# Excerpt: as §1, §2, §3, §4, §5
# wild oat (AVEFA) = format: in vivo, Avena fatua
# Excerpt: as §1, §2, §3, §4, §5
# blackgrass (ALOMY) = format: in vivo, Alopecurus myosuroides
# Excerpt: as §1, §2, §3, §4, §5
# velvetleaf (ABUTH) = format: in vivo, Abutilon theophrasti
# Excerpt: as §1, §2, §3, §4, §5
# spring barley (HORVS) = format: in vivo, Hordeum vulgare; conditions: applied alone
# Excerpt: as §1, §2, §3, §4, §5
# Italian ryegrass (LOLMU) = format: in vivo, Lolium multiflorum
# Excerpt: as §1, §2, §3, §4, §5
# Canada thistle (CIRAR) = format: in vivo, Cirsium arvense
# Excerpt: as §1, §2, §3, §4, §5
# giant foxtail (SETFA) = format: in vivo, Setaria faberi
# Excerpt: as §1, §2, §3, §4, §5
# winter rape (BRSNW) = format: in vivo, Brassica napus
# Excerpt: as §1, §2, §3, §4, §5
# wild pansy (VIOTR) = format: in vivo, Viola tricolor
# Excerpt: as §1, §2, §3, §4, §5
# wild chamomile (MATCH) = format: in vivo, Matricaria chamomilla; conditions: applied alone, 20 g/ha
# Excerpt: as §1, §2, §3, §4, §5
# spring wheat (TRZAS) = format: in vivo, Triticum aestivum; conditions: applied alone
# Excerpt: as §1, §2, §3, §4, §5
# winter wheat (TRZAW) = format: in vivo, Triticum aestivum
# Excerpt: as §1, §2, §3, §4, §5
# [4] = system: common lambsquarters (CHEAL); format: in vivo, Chenopodium album L.
# Excerpt: as §1, §2, §3, §4, §5
compound,measurement,setting,value
"N#CCOC(=O)c1nc(-c2ccc3cc[nH]c3c2F)c(F)c(N)c1Cl [Compound A, cyanomethyl 4-amino-3-chloro-5-fluoro-6-(7-fluoro-1H-indol-6-yl)pyridine-2-carboxylate]",% visual injury Ob,pigweed (AMARE); Compound A 20 g/ha,93%
same,% visual injury Ob,"pigweed (AMARE); applied alone, 20 g/ha",93%
same,% visual injury Ob,"pigweed (AMARE); applied alone, 40 g/ha",100%
same,% visual injury Ob,[1]; Compound A 20 g/ha,0%
same,% visual injury Ob,"[1]; applied alone, 20 g/ha",0%
same,% visual injury Ob,Johnson grass (SORHA); Compound A 20 g/ha,0%
same,% visual injury Ob,"Johnson grass (SORHA); applied alone, 20 g/ha",0%
same,% visual injury Ob,Canada horseweed (ERICA); Compound A 20 g/ha,95%
same,% visual injury Ob,"Canada horseweed (ERICA); applied alone, 20 g/ha",95%
same,% visual injury Ob,[2]; Compound A 20 g/ha,60%
same,% visual injury Ob,"[2]; applied alone, 20 g/ha",60%
same,% visual injury Ob,wild buckwheat (POLCO); Compound A 20 g/ha,100%
same,% visual injury Ob,"wild buckwheat (POLCO); applied alone, 20 g/ha",100%
same,% visual injury Ob,common rice (ORYSA); Compound A 20 g/ha,10%
same,% visual injury Ob,"common rice (ORYSA); applied alone, 20 g/ha",10%
same,% visual injury Ob,Russian thistle (SASKR),60%
same,% visual injury Ob,maize (ZEAMX); Compound A 20 g/ha,13%
same,% visual injury Ob,"maize (ZEAMX); applied alone, 20 g/ha",13%
same,% visual injury Ob,"maize (ZEAMX); applied alone, 40 g/ha",55%
same,% visual injury Ob,soybean (GLXMA); Compound A 20 g/ha,100%
same,% visual injury Ob,"soybean (GLXMA); applied alone, 20 g/ha",100%
same,% visual injury Ob,nutsedge (CYPES); Compound A 20 g/ha,30%
same,% visual injury Ob,"nutsedge (CYPES); applied alone, 20 g/ha",30%
same,% visual injury Ob,"nutsedge (CYPES); applied alone, 40 g/ha",73%
same,% visual injury Ob,barnyardgrass (ECHCG); Compound A 20 g/ha,85%
same,% visual injury Ob,"barnyardgrass (ECHCG); applied alone, 20 g/ha",85%
same,% visual injury Ob,common sunflower (HELAN); Compound A 20 g/ha,95%
same,% visual injury Ob,"common sunflower (HELAN); applied alone, 20 g/ha",95%
same,% visual injury Ob,"common sunflower (HELAN); applied alone, 40 g/ha",100%
same,% visual injury Ob,kochia (KCHSC); Compound A 20 g/ha,97%
same,% visual injury Ob,"kochia (KCHSC); applied alone, 20 g/ha",97%
same,% visual injury Ob,[3]; Compound A 20 g/ha,90%
same,% visual injury Ob,"[3]; applied alone, 20 g/ha",90%
same,% visual injury Ob,large crabgrass (DIGSA); Compound A 20 g/ha,30%
same,% visual injury Ob,"large crabgrass (DIGSA); applied alone, 20 g/ha",30%
same,% visual injury Ob,wild oat (AVEFA); Compound A 20 g/ha,0%
same,% visual injury Ob,"wild oat (AVEFA); applied alone, 20 g/ha",0%
same,% visual injury Ob,blackgrass (ALOMY); Compound A 20 g/ha,0%
same,% visual injury Ob,"blackgrass (ALOMY); applied alone, 20 g/ha",0%
same,% visual injury Ob,velvetleaf (ABUTH); Compound A 20 g/ha,95%
same,% visual injury Ob,"velvetleaf (ABUTH); applied alone, 20 g/ha",95%
same,% visual injury Ob,spring barley (HORVS); 20 g/ha,0%
same,% visual injury Ob,spring barley (HORVS); 40 g/ha,17%
same,% visual injury Ob,Italian ryegrass (LOLMU); Compound A 20 g/ha,5%
same,% visual injury Ob,"Italian ryegrass (LOLMU); applied alone, 20 g/ha",5%
same,% visual injury Ob,Canada thistle (CIRAR); Compound A 20 g/ha,95%
same,% visual injury Ob,"Canada thistle (CIRAR); applied alone, 20 g/ha",95%
same,% visual injury Ob,giant foxtail (SETFA); Compound A 20 g/ha,65%
same,% visual injury Ob,"giant foxtail (SETFA); applied alone, 20 g/ha",65%
same,% visual injury Ob,winter rape (BRSNW); Compound A 20 g/ha,85%
same,% visual injury Ob,"winter rape (BRSNW); applied alone, 20 g/ha",95% and 85%
same,% visual injury Ob,wild pansy (VIOTR); Compound A 20 g/ha,30%
same,% visual injury Ob,"wild pansy (VIOTR); applied alone, 20 g/ha",30%
same,% visual injury Ob,wild chamomile (MATCH),50%
same,% visual injury Ob,spring wheat (TRZAS); 20 g/ha,25%
same,% visual injury Ob,spring wheat (TRZAS); 40 g/ha,23% and 30%
same,% visual injury Ob,winter wheat (TRZAW); Compound A 20 g/ha,25%
same,% visual injury Ob,"winter wheat (TRZAW); applied alone, 20 g/ha",25%
same,% visual injury Ob,"winter wheat (TRZAW); applied alone, 40 g/ha",25%
same,% visual injury Ob,[4]; Compound A 20 g/ha,88%
same,% visual injury Ob,"[4]; applied alone, 20 g/ha",88%
